Laboratory results taken from PubChem BioAssay AID330 (DTP/NCI, 2004).
“And” between values parts separate entries of the source, which are not always exact repeats. Identical values can stand only once. Inconclusive results and toxic doses are left out.

Test system: P388 leukemia ip, CD2F1 mice, survival T/C
Assay: NCI In Vivo Anticancer Drug Screen. Data for tumor model P388 Leukemia (intraperitoneal) in CD2F1 (CDF1) mice
Settings: endpoint: median survival time, higher = longer survival
Summary of the method: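 Mice carrying the transplanted tumor received test compound or vehicle. Survival was recorded in each group, and the value is the treated-group measurement divided by that of the vehicle-treated control group.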

[1] = dose: 100.0 mg/kg/injection, schedule: Q01DX009 (ip), vehicle: saline with Tween-80
[2] = dose: 200.0 mg/kg/injection, schedule: Q01DX009 (ip), vehicle: saline with Tween-80
[3] = dose: 400.0 mg/kg/injection, schedule: Q01DX009 (ip), vehicle: saline with Tween-80
[4] = dose: 50.0 mg/kg/injection, schedule: Q01DX009 (ip), vehicle: saline with Tween-80
[5] = dose: 50.0 mg/kg/injection, schedule: Q01DX005 (ip), vehicle: Klucel (hydroxypropylcellulose) (HPC)
[6] = dose: 100.0 mg/kg/injection, schedule: Q01DX005 (ip), vehicle: Klucel (hydroxypropylcellulose) (HPC)
[7] = dose: 200.0 mg/kg/injection, schedule: Q01DX005 (ip), vehicle: Klucel (hydroxypropylcellulose) (HPC)
[8] = dose: 12.5 mg/kg/injection, schedule: Q01DX009 (ip), vehicle: Klucel (hydroxypropylcellulose) (HPC)
[9] = dose: 25.0 mg/kg/injection, schedule: Q01DX009 (ip), vehicle: Klucel (hydroxypropylcellulose) (HPC)
[10] = dose: 50.0 mg/kg/injection, schedule: Q01DX009 (ip), vehicle: Klucel (hydroxypropylcellulose) (HPC)
[11] = dose: 60.0 mg/kg/injection, schedule: Q01DX005 (ip), vehicle: saline with Tween-80
[12] = dose: 120.0 mg/kg/injection, schedule: Q01DX005 (ip), vehicle: saline with Tween-80
[13] = dose: 240.0 mg/kg/injection, schedule: Q01DX005 (ip), vehicle: saline with Tween-80
[14] = dose: 100.0 mg/kg/injection, schedule: Q01DX001 (ip), vehicle: saline with Tween-80
[15] = dose: 200.0 mg/kg/injection, schedule: Q01DX001 (ip), vehicle: saline with Tween-80
[16] = dose: 12.5 mg/kg/injection, schedule: Q01DX009 (ip), vehicle: saline
[17] = dose: 25.0 mg/kg/injection, schedule: Q01DX009 (ip), vehicle: saline
[18] = dose: 50.0 mg/kg/injection, schedule: Q01DX009 (ip), vehicle: saline
[19] = dose: 100.0 mg/kg/injection, schedule: Q01DX009 (ip), vehicle: saline
[20] = dose: 6.25 mg/kg/injection, schedule: Q01DX009 (ip), vehicle: saline with Tween-80
[21] = dose: 12.5 mg/kg/injection, schedule: Q01DX009 (ip), vehicle: saline with Tween-80
[22] = dose: 100.0 mg/kg/injection, schedule: Q01DX009 (ip), vehicle: Klucel (hydroxypropylcellulose) (HPC)
[23] = dose: 200.0 mg/kg/injection, schedule: Q01DX009 (ip), vehicle: Klucel (hydroxypropylcellulose) (HPC)
[24] = dose: 200.0 mg/kg/injection, schedule: Q01DX009 (ip), vehicle: saline
[25] = dose: 50.0 mg/kg/injection, schedule: Q01DX005 (ip), vehicle: saline with Tween-80
[26] = dose: 100.0 mg/kg/injection, schedule: Q01DX005 (ip), vehicle: saline with Tween-80
[27] = dose: 200.0 mg/kg/injection, schedule: Q01DX005 (ip), vehicle: saline with Tween-80
[28] = dose: 100.0 mg/kg/injection, schedule: Q04DX003 (ip), vehicle: saline with Tween-80
[29] = dose: 200.0 mg/kg/injection, schedule: Q04DX003 (ip), vehicle: saline with Tween-80

## CC(=O)O[C@H]1CC[C@H]2[C@@H]3CCC4=CC(=O)CC[C@]4(C)[C@H]3[C@H](OC(C)=O)C[C@]12C
[1]
  T/C: 95 % of control
[2]
  T/C: 100 % of control
[3]
  T/C: 90 % of control

## N.O=S(=O)(O)O.[Al]
[4]
  T/C: 100 % of control
[1]
  T/C: 100 % of control

## C1=CCC2CSCC2C1 (centres undefined)
dose: 37.5 mg/kg/injection, schedule: Q01DX001 (ip), vehicle: saline sonified
  T/C: 100 % of control
dose: 75.0 mg/kg/injection, schedule: Q01DX001 (ip), vehicle: saline sonified
  T/C: 105 % of control

## CCC(C)C(N)C(=O)N1CCCC1C(=O)NC(C(=O)O)C(C)CC (centres undefined)
dose: 8.25 mg/kg/injection, schedule: Q01DX005 (ip), vehicle: saline
  T/C: 99 % of control
dose: 16.5 mg/kg/injection, schedule: Q01DX005 (ip), vehicle: saline
  T/C: 102 % of control
dose: 33.0 mg/kg/injection, schedule: Q01DX005 (ip), vehicle: saline
  T/C: 94 % of control
dose: 66.0 mg/kg/injection, schedule: Q01DX005 (ip), vehicle: saline
  T/C: 102 % of control

## CC1=CC2(CC(C)(C)C1)N(c1ccccc1)C(=O)C2(c1ccccc1)c1ccccc1 (centres undefined)
[5]
  T/C: 91 % of control
[6]
  T/C: 91 % of control
[7]
  T/C: 87 % of control

## Clc1cc[c]([Sb]2([c]3ccc(Cl)cc3)([c]3ccc(Cl)cc3)[O]C(C(Cl)(Cl)Cl)[O]2)cc1 (centres undefined)
[8]
  T/C: 99 % of control
[9]
  T/C: 104 % of control
[10]
  T/C: 100 % of control and 95 % of control

## O=C(O)c1[nH]c(=O)[nH]c(=O)c1F
dose: 2.5 mg/kg/injection, schedule: Q01DX010 (ip), vehicle: saline
  T/C: 110 % of control
dose: 5.0 mg/kg/injection, schedule: Q01DX010 (ip), vehicle: saline
  T/C: 160 % of control
dose: 16.0 mg/kg/injection, schedule: Q01DX009 (ip), vehicle: saline
  T/C: 100 % of control

## CSc1nc2c(=O)[nH]cnc2s1
[11]
  T/C: 105 % of control
[12]
  T/C: 102 % of control
[13]
  T/C: 96 % of control

## N#Cc1nnn(-c2ccc(Cl)cc2)c1N
[5]
  T/C: 99 % of control
[6]
  T/C: 97 % of control

## CCOC(=O)c1c(NCCO)c(-c2ccccc2)c(=O)n2c1[nH]c1ccccc12
[14]
  T/C: 100 % of control
[15]
  T/C: 99 % of control
dose: 400.0 mg/kg/injection, schedule: Q01DX001 (ip), vehicle: saline with Tween-80
  T/C: 87 % of control

## CC(C)C(O)(C(=O)OCN1C(=O)C2C3C=CC(C2C1=O)C1C2C(=O)N(COC(=O)C(O)(C(C)C)C(C)O)C(=O)C2C31)C(C)O (centres undefined)
[16]
  T/C: 110 % of control
[17]
  T/C: 103 % of control
[18]
  T/C: 109 % of control
[19]
  T/C: 115 % of control

## O=[N+]([O-])c1cccn2nnnc12
dose: 3.12 mg/kg/injection, schedule: Q01DX009 (ip), vehicle: saline with Tween-80
  T/C: 102 % of control
[20]
  T/C: 87 % of control
[21]
  T/C: 93 % of control
dose: 25.0 mg/kg/injection, schedule: Q01DX009 (ip), vehicle: saline with Tween-80
  T/C: 95 % of control
[4]
  T/C: 117 % of control and 96 % of control
[1]
  T/C: 119 % of control

## Cc1cc(-c2ccccc2)nc2nc3ccccc3n12
[11]
  T/C: 105 % of control
[12]
  T/C: 103 % of control
[13]
  T/C: 103 % of control

## CN=NNc1ccc([N+](=O)[O-])cc1
[8]
  T/C: 98 % of control and 94 % of control
[9]
  T/C: 103 % of control and 109 % of control
[10]
  T/C: 108 % of control and 111 % of control
[22]
  T/C: 112 % of control
[23]
  T/C: 167 % of control

## N#CN=[N+]([O-])c1ccc(Br)cc1
dose: 6.25 mg/kg/injection, schedule: Q04DX003 (ip), vehicle: Klucel (hydroxypropylcellulose) (HPC)
  T/C: 108 % of control
dose: 12.5 mg/kg/injection, schedule: Q04DX003 (ip), vehicle: Klucel (hydroxypropylcellulose) (HPC)
  T/C: 108 % of control
dose: 25.0 mg/kg/injection, schedule: Q04DX003 (ip), vehicle: Klucel (hydroxypropylcellulose) (HPC)
  T/C: 90 % of control

## Cc1c(N=Nc2ccc(Br)cc2)c(-c2ccccc2)nn1C(=S)S
[5]
  T/C: 105 % of control
[6]
  T/C: 105 % of control
[7]
  T/C: 90 % of control

## COc1cccc(C2SCC(=O)N2c2nncs2)c1[N+](=O)[O-] (centres undefined)
[11]
  T/C: 110 % of control
[12]
  T/C: 100 % of control
[13]
  T/C: 91 % of control

## CN(C)c1cc2nc3ccccc3nc2cc1O
[18]
  T/C: 95 % of control
[19]
  T/C: 92 % of control
[24]
  T/C: 100 % of control

## O=C1C2CCC(N1CCc1ccccc1)n1c(=O)n(-c3ccccc3)c(=O)n12 (centres undefined)
dose: 100.0 mg/kg/injection, schedule: Q01DX001 (ip), vehicle: Klucel (hydroxypropylcellulose) (HPC)
  T/C: 99 % of control
dose: 200.0 mg/kg/injection, schedule: Q01DX001 (ip), vehicle: Klucel (hydroxypropylcellulose) (HPC)
  T/C: 104 % of control
dose: 400.0 mg/kg/injection, schedule: Q01DX001 (ip), vehicle: Klucel (hydroxypropylcellulose) (HPC)
  T/C: 97 % of control

## O=S(=O)(O)CN(CS(=O)(=O)O)c1nc(N(CS(=O)(=O)O)CS(=O)(=O)O)nc(N(CS(=O)(=O)O)CS(=O)(=O)O)n1
[25]
  T/C: 92 % of control
[26]
  T/C: 99 % of control
[27]
  T/C: 101 % of control

## CCN=C1NS(=O)(=O)c2ccccc21
[25]
  T/C: 100 % of control
[26]
  T/C: 97 % of control
[27]
  T/C: 100 % of control

## CC(C)c1nc2c(n1Cc1ccccc1)C=C(C(=O)c1ccccc1)S(=O)(=O)C(C(=O)c1ccccc1)=C2
[11]
  T/C: 96 % of control
[12]
  T/C: 90 % of control
[13]
  T/C: 92 % of control

## [Br][Sn]([Br])([CH2][Sn]([Br])([Br])[c]1ccccc1)[c]1ccccc1
[5]
  T/C: 97 % of control
[6]
  T/C: 99 % of control
[7]
  T/C: 89 % of control

## COc1ccc(C2CC(=O)c3c(O)cc(OC4OC(CO)C(O)C(O)C4OC4OC(C)C(O)C(O)C4O)cc3O2)cc1O (centres undefined)
[25]
  T/C: 102 % of control
[26]
  T/C: 100 % of control
[27]
  T/C: 92 % of control

## CCCCN(CCCC)CC(O)c1cc2c(Cl)cc(Cl)cc2c2cc(C(F)(F)F)ccc12 (centres undefined)
[4]
  T/C: 97 % of control
[1]
  T/C: 100 % of control
[2]
  T/C: 100 % of control

## CC(=O)CC(C)(C)C1CCCCC1
dose: 12.5 mg/kg/injection, schedule: Q01DX009 (ip), vehicle: water
  T/C: 116 % of control
dose: 25.0 mg/kg/injection, schedule: Q01DX009 (ip), vehicle: water
  T/C: 108 % of control
dose: 50.0 mg/kg/injection, schedule: Q01DX009 (ip), vehicle: water
  T/C: 103 % of control
dose: 100.0 mg/kg/injection, schedule: Q01DX009 (ip), vehicle: water
  T/C: 107 % of control
dose: 200.0 mg/kg/injection, schedule: Q01DX009 (ip), vehicle: water
  T/C: 104 % of control

## CN(N=O)C(=O)NCCCCCNC(=O)N(C)N=O
[28]
  T/C: 100 % of control
[29]
  T/C: 104 % of control
[3]
  T/C: 150 % of control and 163 % of control
dose: 400.0 mg/kg/injection, schedule: Q04DX003 (ip), vehicle: saline with Tween-80
  T/C: 104 % of control
dose: 600.0 mg/kg/injection, schedule: Q01DX009 (ip), vehicle: saline with Tween-80
  T/C: 163 % of control

## c1ccc2n[nH]nc2c1
[18]
  T/C: 100 % of control
[14]
  T/C: 112 % of control
[1]
  T/C: 104 % of control
[19]
  T/C: 100 % of control
[28]
  T/C: 95 % of control
[15]
  T/C: 105 % of control
[2]
  T/C: 109 % of control
[24]
  T/C: 104 % of control
[29]
  T/C: 109 % of control

## O=S(=O)(O)SCCN1CCCCC1
[16]
  T/C: 110 % of control
[17]
  T/C: 100 % of control
[18]
  T/C: 100 % of control

## CC(=O)NC1C([Se][As](C)C)OC(COC(C)=O)C(OC(C)=O)C1OC(C)=O (centres undefined)
[20]
  T/C: 122 % of control
[21]
  T/C: 116 % of control

## O=C(NCCCl)Nc1[nH]c(=O)ncc1Cl
[11]
  T/C: 103 % of control
[12]
  T/C: 100 % of control
[13]
  T/C: 101 % of control

## CCCCCCCCCCCCCCCCCN1CCS(=O)(=O)CC1
[10]
  T/C: 100 % of control
[22]
  T/C: 94 % of control
[23]
  T/C: 88 % of control
